Assay results from ChEMBL document CHEMBL5370604, “Identification of Micrococcin P2-Derivatives as Antibiotic Candidates against Two Gram-Positive Pathogens” (J Med Chem, 2023).
≈ marks a conversion by molar mass, not a printed value. Calls of active or inactive are those of the source. The rule behind the calls is not given here.

Key:
Staphylococcus aureus [1] = assay: Antibacterial activity against Staphylococcus aureus ATCC 4330 assessed as inhibition of bacterial growth measured after 16 to 24 hrs by CLSI based broth dilution method; format: functional; conditions: time 16-24 hrs
Clostridioides difficile [2] = assay: Antibacterial activity against Clostridioides difficile ATCC 43255 assessed as inhibition of bacterial growth measured after 24 hrs by CLSI based broth dilution method; format: functional
Clostridioides difficile [3] = assay: Antibacterial activity against Clostridioides difficile ribotype 027 infected in colitis induced C57BL/6J mouse assessed as survival rate at 30 mg/kg, po qd pretreated with clindamycin followed by […] infection and compound addition measured on day 5; format: functional; conditions: ribotype 027, 120 h, time 5 day
Clostridioides difficile [4] = assay: Antibacterial activity against Clostridioides difficile ribotype 027 infected in colitis induced C57BL/6J mouse assessed as increase in survival rate without recurrence at 30 mg/kg, po qd pretreated with clindamycin followed by […] infection and compound addition measured on day 5; format: functional; conditions: time 5 day
Clostridioides difficile [5] = assay: Antibacterial activity against Clostridioides difficile ribotype 027 infected in colitis induced C57BL/6J mouse assessed as increase in survival rate without recurrence at 30 mg/kg, po qd pretreated with clindamycin followed by […] infection and compound addition measured on day 15 to day 19; format: functional, organism-based; conditions: time 15-19 day
[6] = (§1) Toxicity in colitis-induced C57BL/6J mouse infected with Clostridioides difficile ribotype 027 assessed as increase in Enterococcus proportion in gut at 30 mg/kg, po qd pretreated with clindamycin followed by infected with […] and measured on day 6 post treatment by RNA sequencing analysis (reference value: 0%); format: organism-based; conditions: in vivo, 144 h, time 6 day
[7] = as §1, with “Klebsiella” for “Enterococcus”; format: organism-based; conditions: in vivo, 144 h, time 6 day
[8] = as §1, with “Escherichia” for “Enterococcus”; format: organism-based; conditions: in vivo, 144 h, time 6 day
[9] = as §1, with “in Klebsiella” for “in Enterococcus”, “day 20” for “day 6”; format: organism-based; conditions: in vivo, 480 h, time 20 day
[10] = as §1, with “day 20” for “day 6”; format: organism-based; conditions: in vivo, 480 h, time 20 day
[11] = as §1, with “in Escherichia” for “in Enterococcus”, “day 20” for “day 6”; format: organism-based; conditions: in vivo, 480 h, time 20 day
Clostridioides difficile [12] = assay: Antibacterial activity against Clostridioides difficile RT001/ST3/A+B+ assessed as inhibition of bacterial growth measured after 24 hrs by CLSI based broth dilution method; format: functional
Clostridioides difficile [13] = assay: Antibacterial activity against Clostridioides difficile RT002/ST8/A+B+ assessed as inhibition of bacterial growth measured after 24 hrs by CLSI based broth dilution method; format: functional
Clostridioides difficile [14] = assay: Antibacterial activity against Clostridioides difficile RT012/ST54/A+B+ assessed as inhibition of bacterial growth measured after 24 hrs by CLSI based broth dilution method; format: functional
Clostridioides difficile [15] = assay: Antibacterial activity against Clostridioides difficile RT014/ST14/A+B+ assessed as inhibition of bacterial growth measured after 24 hrs by CLSI based broth dilution method; format: functional
Clostridioides difficile [16] = assay: Antibacterial activity against Clostridioides difficile RT015/ST35/A+B+ assessed as inhibition of bacterial growth measured after 24 hrs by CLSI based broth dilution method; format: functional
Clostridioides difficile [17] = assay: Antibacterial activity against Clostridioides difficile RT018/ST17/A+B+ assessed as inhibition of bacterial growth measured after 24 hrs by CLSI based broth dilution method; format: functional
Clostridioides difficile [18] = assay: Antibacterial activity against Clostridioides difficile RT293/ST129/A+B+ assessed as inhibition of bacterial growth measured after 24 hrs by CLSI based broth dilution method; format: functional
Clostridioides difficile [19] = assay: Antibacterial activity against Clostridioides difficile RT027/ST1/A+B+CDT+ assessed as inhibition of bacterial growth measured after 24 hrs by CLSI based broth dilution method; format: functional
Clostridioides difficile [20] = assay: Antibacterial activity against Clostridioides difficile NT/ST67/A+B+CDT+ assessed as inhibition of bacterial growth measured after 24 hrs by CLSI based broth dilution method; format: functional
Clostridioides difficile [21] = assay: Antibacterial activity against Clostridioides difficile RT130/ST5/A+B+CDT+ assessed as inhibition of bacterial growth measured after 24 hrs by CLSI based broth dilution method; format: functional
Clostridioides difficile [22] = assay: Antibacterial activity against Clostridioides difficile NT/ST221/A+B+CDT+ assessed as inhibition of bacterial growth measured after 24 hrs by CLSI based broth dilution method; format: functional
Clostridioides difficile [23] = assay: Antibacterial activity against Clostridioides difficile RT017/ST37/A-B+ assessed as inhibition of bacterial growth measured after 24 hrs by CLSI based broth dilution method; format: functional
Clostridioides difficile [24] = assay: Antibacterial activity against Clostridioides difficile RT078/ST11/A+B+CDT+ assessed as inhibition of bacterial growth measured after 24 hrs by CLSI based broth dilution method; format: functional
Staphylococcus aureus [25] = assay: Antibacterial activity against methicillin-resistant Staphylococcus aureus assessed as inhibition of bacterial growth measured after 16 to 24 hrs by CLSI based broth dilution method; format: functional; conditions: time 16-24 hrs
[26] = Aqueous kinetic solubility of the compound at pH 7.4 incubated for 2 hrs by UPLC-MS analysis; format: physicochemical; conditions: read-out: Kinetic_solubility

## C/C=C1\NC(=O)[C@H]([C@@H](C)O)NC(=O)c2csc(n2)-c2ccc(-c3nc(-c4nc(C(=O)NC5(C(=O)NCCN6CCOCC6)CC5)cs4)cs3)nc2-c2csc(n2)[C@H]([C@@H](C)O)NC(=O)c2csc(n2)[C@H](C(C)C)NC(=O)c2csc1n2
Staphylococcus aureus [1]
  MIC: 1 µg/mL (≈ 0.834 µM)
Clostridioides difficile [2]
  MIC: 2 µg/mL (≈ 1.67 µM)

## C/C=C1\NC(=O)[C@H]([C@@H](C)O)NC(=O)c2csc(n2)-c2ccc(-c3nc(-c4nc(C(=O)NC5(C(=O)NCCn6c([N+](=O)[O-])cnc6C)CC5)cs4)cs3)nc2-c2csc(n2)[C@H]([C@@H](C)O)NC(=O)c2csc(n2)[C@H](C(C)C)NC(=O)c2csc1n2
Staphylococcus aureus [1]
  MIC: 0.5 µg/mL (≈ 0.403 µM)
Clostridioides difficile [2]
  MIC: 0.5 µg/mL (≈ 0.403 µM)

## CN[C@H](CC(C)C)C(=O)N[C@H]1C(=O)N[C@@H](CC(N)=O)C(=O)N[C@H]2C(=O)N[C@H]3C(=O)N[C@H](C(=O)N[C@H](C(=O)O)c4cc(O)cc(O)c4-c4cc3ccc4O)[C@H](O)c3ccc(c(Cl)c3)Oc3cc2cc(c3O[C@@H]2O[C@H](CO)[C@@H](O)[C@H](O)[C@H]2O[C@H]2C[C@](C)(N)[C@H](O)[C@H](C)O2)Oc2ccc(cc2Cl)[C@H]1O [VANCOMYCIN]
Clostridioides difficile [2]
  MIC: 1 µg/mL (≈ 0.69 µM)
Clostridioides difficile [3]
  survival at 30 mg/kg: 40%
Clostridioides difficile [4]
  Activity: 30%
Clostridioides difficile [5]
  Activity: inactive
[6]
  Activity: 0%
[7]
  Activity: 8.78%
[8]
  Activity: 24.55%
[9]
  Activity: 1.39%
[10]
  Activity: 21.53%
[11]
  Activity: 5.22%
Clostridioides difficile [12]
  MIC: 1 µg/mL (≈ 0.69 µM)
Clostridioides difficile [13]
  MIC: 1 µg/mL (≈ 0.69 µM)
Clostridioides difficile [14]
  MIC: 1 µg/mL (≈ 0.69 µM)
Clostridioides difficile [15]
  MIC: 1 µg/mL (≈ 0.69 µM)
Clostridioides difficile [16]
  MIC: 0.5 µg/mL (≈ 0.345 µM)
Clostridioides difficile [17]
  MIC: 1 µg/mL (≈ 0.69 µM)
Clostridioides difficile [18]
  MIC: 1 µg/mL (≈ 0.69 µM)
Clostridioides difficile [19]
  MIC: 1 µg/mL (≈ 0.69 µM)
Clostridioides difficile [20]
  MIC: 2 µg/mL (≈ 1.38 µM)
Clostridioides difficile [21]
  MIC: 1 µg/mL (≈ 0.69 µM)
Clostridioides difficile [22]
  MIC: 2 µg/mL (≈ 1.38 µM)
Clostridioides difficile [23]
  MIC: 0.5 µg/mL (≈ 0.345 µM)
Clostridioides difficile [24]
  MIC: 1 µg/mL (≈ 0.69 µM)

## C/C(=C\C(=O)OCCCCCCCCC(=O)O)C[C@@H]1OC[C@H](C[C@@H]2O[C@H]2[C@@H](C)[C@H](C)O)[C@@H](O)[C@H]1O [MUPIROCIN]
Staphylococcus aureus [25]
  MIC50: > 8 µg/mL

## C/C=C1\NC(=O)[C@H]([C@@H](C)O)NC(=O)c2csc(n2)-c2ccc(-c3nc(-c4nc(C(=O)NC5(C(=O)NCCN6C(=O)CNC6=O)CC5)cs4)cs3)nc2-c2csc(n2)[C@H]([C@@H](C)O)NC(=O)c2csc(n2)[C@H](C(C)C)NC(=O)c2csc1n2
Staphylococcus aureus [1]
  MIC: 1 µg/mL (≈ 0.825 µM)
Clostridioides difficile [2]
  MIC: > 16 µg/mL

## C/C=C(\NC(=O)c1csc(-c2csc(-c3ccc4c(n3)-c3csc(n3)[C@H]([C@@H](C)O)NC(=O)c3csc(n3)[C@H](C(C)C)NC(=O)c3csc(n3)/C(=C/C)NC(=O)[C@H]([C@@H](C)O)NC(=O)c3csc-4n3)n2)n1)C(=O)NCCCN1CCOCC1
Staphylococcus aureus [1]
  MIC: 1 µg/mL (≈ 0.824 µM)
Clostridioides difficile [2]
  MIC: 0.5 µg/mL (≈ 0.412 µM)

## C/C=C1\NC(=O)[C@H]([C@@H](C)O)NC(=O)c2csc(n2)-c2ccc(-c3nc(-c4nc(C(=O)NC5(C(=O)NCCCN6CCN(C(C)C)CC6)CC5)cs4)cs3)nc2-c2csc(n2)[C@H]([C@@H](C)O)NC(=O)c2csc(n2)[C@H](C(C)C)NC(=O)c2csc1n2
Staphylococcus aureus [1]
  MIC: 1 µg/mL (≈ 0.797 µM)
Clostridioides difficile [2]
  MIC: 1 µg/mL (≈ 0.797 µM)
[26]
  solubility kinetic at 2 h: 120 µg/mL (≈ 95.6 µM)

## C/C=C1\NC(=O)[C@H]([C@@H](C)O)NC(=O)c2csc(n2)-c2ccc(-c3nc(-c4nc(C(=O)NC5(C(=O)NCCCN6C(=O)CNC6=O)CC5)cs4)cs3)nc2-c2csc(n2)[C@H]([C@@H](C)O)NC(=O)c2csc(n2)[C@H](C(C)C)NC(=O)c2csc1n2
Staphylococcus aureus [1]
  MIC: 1 µg/mL (≈ 0.815 µM)
Clostridioides difficile [2]
  MIC: 0.125 µg/mL (≈ 0.102 µM)
Clostridioides difficile [12]
  MIC: 0.25 µg/mL (≈ 0.204 µM)
Clostridioides difficile [13]
  MIC: 0.5 µg/mL (≈ 0.408 µM)
Clostridioides difficile [14]
  MIC: 0.5 µg/mL (≈ 0.408 µM)
Clostridioides difficile [15]
  MIC: 0.5 µg/mL (≈ 0.408 µM)
Clostridioides difficile [16]
  MIC: 0.25 µg/mL (≈ 0.204 µM)
Clostridioides difficile [17]
  MIC: 0.25 µg/mL (≈ 0.204 µM)
Clostridioides difficile [18]
  MIC: 0.5 µg/mL (≈ 0.408 µM)
Clostridioides difficile [19]
  MIC: 0.5 µg/mL (≈ 0.408 µM)
Clostridioides difficile [20]
  MIC: 0.5 µg/mL (≈ 0.408 µM)
Clostridioides difficile [21]
  MIC: 0.5 µg/mL (≈ 0.408 µM)
Clostridioides difficile [22]
  MIC: 0.5 µg/mL (≈ 0.408 µM)
Clostridioides difficile [23]
  MIC: 0.5 µg/mL (≈ 0.408 µM)
Clostridioides difficile [24]
  MIC: 0.5 µg/mL (≈ 0.408 µM)

## C/C=C1\NC(=O)[C@H]([C@@H](C)O)NC(=O)c2csc(n2)-c2ccc(-c3nc(-c4nc(C(=O)NC5(C(=O)NCCn6ccnc6[N+](=O)[O-])CC5)cs4)cs3)nc2-c2csc(n2)[C@H]([C@@H](C)O)NC(=O)c2csc(n2)[C@H](C(C)C)NC(=O)c2csc1n2
Staphylococcus aureus [1]
  MIC: 1 µg/mL (≈ 0.816 µM)
Clostridioides difficile [2]
  MIC: 0.5 µg/mL (≈ 0.408 µM)
